*1 amine or outer side, *2 acyl side, *3 side chain or, on linkers, in order; H or OH if unused. Where a SMILES comes first, the peptide text is derived from it. Side-chain parts run from the residue outwards. [ ]: non-standard residue; d: D form. The star is where a group is joined. C20 diacid = O=C(O)CCCCCCCCCCCCCCCCCCC(=O)*; C18 diacid = O=C(O)CCCCCCCCCCCCCCCCC(=O)*; γGlu = O=C(O)[C@H](CCC(=O)[*:2])N[*:1]; Api = NC1(C(=O)O)CCNCC1; AEEA = NCCOCCOCC(=O)O; Aib = CC(C)(N)C(=O)O
Columns and labels:
human CRF2a receptor = molecular target: T1, human CRF2a receptor (Homo sapiens, UniProt Q13324); assay: Activity at human CRF2a receptor, cAMP functional assay in TeloHEAC cells; type: cell-based; conditions: TeloHEAC cells stably expressing human CRF2a receptor, relative to urocortin 2 (100 nM = 100%)
T1 construct: expressed in transfected cells; host or cells: TeloHEAC cells
T1 sequence (Q13324 1-411): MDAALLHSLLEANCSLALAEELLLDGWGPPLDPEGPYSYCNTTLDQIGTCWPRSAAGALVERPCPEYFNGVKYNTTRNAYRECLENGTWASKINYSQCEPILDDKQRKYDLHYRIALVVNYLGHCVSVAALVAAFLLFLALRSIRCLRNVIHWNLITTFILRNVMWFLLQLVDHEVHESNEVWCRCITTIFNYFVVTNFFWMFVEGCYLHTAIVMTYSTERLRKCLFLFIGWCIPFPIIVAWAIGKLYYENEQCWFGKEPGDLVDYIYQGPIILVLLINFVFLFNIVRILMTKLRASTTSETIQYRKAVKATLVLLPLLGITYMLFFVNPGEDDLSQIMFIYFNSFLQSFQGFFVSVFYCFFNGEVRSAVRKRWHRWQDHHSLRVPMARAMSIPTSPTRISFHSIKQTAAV
Procedure, shortened: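 TeloHEAC cells stably expressing human CRF2a (10000 cells/well, suspended in HBSS/20 mM HEPES with 2 mM IBMX) were exposed to compounds for 30 min at 37 °C. cAMP was read as the 665/620 nm fluorescence ratio after 1 h at room temperature. EC50 was derived relative to 100 nM urocortin 2, set as 100%.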

CFR1R receptor = molecular target: T2, CFR1R receptor (Homo sapiens, UniProt P34998); assay: Activity at anti-target CFR1R receptor, cAMP assay in CRF1R-overexpression CHO-K1 cells; type: cell-based; conditions: 100% = Sauvagine at 100 nM; for EC50: cAMP
T2 construct: host or cells: CHO-K1 (clone 2)
T2 sequence (P34998 24-415): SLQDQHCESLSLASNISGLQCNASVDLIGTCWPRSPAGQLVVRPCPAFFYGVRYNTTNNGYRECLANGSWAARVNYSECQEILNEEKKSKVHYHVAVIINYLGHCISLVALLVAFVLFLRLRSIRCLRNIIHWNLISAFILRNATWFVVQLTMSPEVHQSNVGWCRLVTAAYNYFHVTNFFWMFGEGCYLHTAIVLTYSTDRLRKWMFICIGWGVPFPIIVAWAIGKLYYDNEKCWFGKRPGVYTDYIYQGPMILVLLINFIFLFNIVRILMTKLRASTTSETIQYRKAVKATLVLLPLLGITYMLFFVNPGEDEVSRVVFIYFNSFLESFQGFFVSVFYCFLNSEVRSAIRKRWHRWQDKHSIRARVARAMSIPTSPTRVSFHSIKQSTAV
Procedure, shortened: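 Uses frozen stocks of CHO-K1 clone 2 cells overexpressing human CRF1R, plated at 4000 cells/well final, with cAMP measured by the same protocol as the TeloHAEC line. Full-activation control: 100 nM Sauvagine.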

[1] = In vitro subcutaneous tissue supernatant (SCts) stability and metabolite identification, rat; type: in vitro ADME; parameters: remaining at 2 h: dose or concentration left out as unconfirmed; conditions: male, Sprague Dawley; rat subcutaneous tissue supernatant (SCts), 37° C, 2 h
Procedure: In vitro metabolic stability in subcutaneous tissue supernatant (SCts) was studied in male Sprague Dawley rats. Test compounds were incubated […] for 2 hours at 37° C.
Software aided in vitro metabolite identification on SCts stability samples was performed using either Metabolite Pilot (Sciex) or Biopharma Finder (Thermo). In addition, metabolite identification using Metabolite Pilot was performed on plasma samples of Comp Y following SC administration to rat at 1 mg/kg.

[2] = Chemical stability in buffer (pH 7.4 / pH 4.5), % purity loss; type: physicochemical; conditions: 40° C. vs 5° C., 14 or 28 days; for Buffer stability pH 4.5 % purity loss: 100 mM acetate buffer pH 4.5; for Buffer stability pH 7.4 % purity loss: 100 mM phosphate buffer pH 7.4
Procedure, shortened: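 LC-UV gave % loss after 14 or 28 days of storage at 5 °C or 40 °C. Samples were diluted supernatants from compound incubated 1 h at room temperature at 10 mg/mL target, in 100 mM acetate pH 4.5 or 100 mM phosphate pH 7.4.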

[3] = Pharmacokinetics in male Sprague Dawley rats after subcutaneous administration; type: in vivo; conditions: plasma, rat, SC, 0.05 mg/kg
Procedure: The pharmacokinetics of UCN-2 derivatives was studied in male Sprague Dawley rats after subcutaneous administration (SC) at 0.05, 0.1, 0.3 or 1 mg/kg. Peptides were formulated as a solution in 10 mM phosphate pH 7.4 buffer+glycerol 85% (2.3% v/v)). […] The supernatant (200 μL) was analyzed by LC-MSMS. Pharmacokinetic parameters were calculated using established non-compartmental methods. The area under the plasma concentration curve versus time (AUC) was determined using Watson LIMS (version 7.6), with linear trapezoidal interpolation in the ascending slope and logarithmic trapezoidal interpolation in the descending slope. The portion of the AUC from the last measurable concentration to infinity was estimated from the equation, Ct/kel, where Ct represents the last measurable concentration and kel is the elimination rate constant. The latter was determined from the concentration curve versus time by linear regression at the terminal phase of the semi-logarithmic plot.

Sprague Dawley rats = assay: Effect on systolic blood pressure, telemetry in Sprague Dawley rats; type: in vivo, rat; conditions: 0.1 mg/kg SC
Procedure, shortened: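 Values are % change from a 1 h pre-dose baseline in systolic pressure, tracked by telemetry for up to 48 hours after a single 0.1 mg/kg subcutaneous dose. Rats (Sprague Dawley, n=2 per peptide) carried aortic catheters and recovered at least 10 days post-surgery; duration of action marks the last time point still showing an effect.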

For `CC[C@H](C)[C@H](NC(C)=O)C(=O)N[C@H](C(=O)N[C@@H](CC(C)C)C(=O)N[C@@H](CO)C(=O)N[C@@H](CC(C)C)C(=O)N[C@@H](CC(=O)O)C(=O)N[C@@H](C(=O)N1CCC[C@H]1C(=O)N[C@H](C(=O)N[C@@H](CCCCN)C(=O)N[C@@H](CC(C)C)C(=O)N[C@@H](CCCCNC(=O)COCCOCCNC(=O)COCCOCCNC(=O)CC[C@H](NC(=O)CCCCCCCCCCCCCCCCC(=O)O)C(=O)O)C(=O)N[C@@H](CCCCN)C(=O)N[C@H](C(=O)N[C@@H](CC(C)C)C(=O)N[C@@H](CC(C)C)C(=O)N[C@@H](CCC(=O)O)C(=O)N[C@@H](CCC(N)=O)C(=O)N[C@@H](CCC(=O)O)C(=O)N[C@@H](CCCCN)C(=O)N[C@@H](CCC(N)=O)C(=O)N[C@@H](CCCCN)C(=O)N[C@@H](CCCCN)C(=O)N[C@@H](CCC(N)=O)C(=O)N[C@@H](CCCNC(=N)N)C(=O)N[C@@H](CCC(=O)O)C(=O)N[C@@H](CCC(N)=O)C(=O)N[C@@H](C)C(=O)N[C@@H](CCC(=O)O)C(=O)N[C@H](C(=O)N[C@@H](CC(N)=O)C(=O)NC(C)(C)C(=O)N[C@@H](CCC(N)=O)C(=O)N[C@H](C(=O)N[C@@H](CC(C)C)C(=O)N[C@@H](C)C(=O)N[C@@H](CCC(N)=O)C(=O)N[C@H](C(N)=O)C(C)C)[C@@H](C)CC)[C@@H](C)O)[C@@H](C)CC)[C@@H](C)CC)C(C)C)C(C)C` [compound 98] (Ac-IVLSLD[dV]PIKLK([AEEA-AEEA-γGlu-C18 diacid])KILLEQEKQKKQREQAETN[Aib]QILAQV-NH2), the EC50 (human CRF2a receptor) was 550 pM, the “Emax (% I)” value (CFR1R receptor) was −2 % I and the EC50 (CFR1R receptor) was > 250000 pM. The remaining at 2 h [1] was 74%, the “Buffer stability pH 4.5 % purity loss” value [2] was 0.0/0.0 ^ % and the “Buffer stability pH 7.4 % purity loss” value [2] was 0.0/0.0 ^ %. It also gave an AUC(0-t) [3] of 2710 ng·h/mL, a Cmax [3] of 159 ng/mL and a Tmax [3] of 5 h. For the same compound, the half-life [3] was 5.8 h.
For `CC[C@H](C)[C@H](NC(C)=O)C(=O)N[C@H](C(=O)N[C@@H](CC(C)C)C(=O)N[C@@H](CO)C(=O)N[C@@H](CC(C)C)C(=O)N[C@@H](CC(=O)O)C(=O)N[C@@H](C(=O)N1CCC[C@H]1C(=O)N[C@H](C(=O)N[C@@H](CCCCN)C(=O)N[C@@H](CC(C)C)C(=O)N[C@@H](CCCCNC(=O)CC[C@H](NC(=O)CCCCCCCCCCCCCCCCC(=O)O)C(=O)O)C(=O)N[C@@H](CCCCN)C(=O)N[C@H](C(=O)N[C@@H](CC(C)C)C(=O)N[C@@H](CC(C)C)C(=O)N[C@@H](CCC(=O)O)C(=O)N[C@@H](CCC(N)=O)C(=O)N[C@@H](CCC(=O)O)C(=O)N[C@@H](CCCCN)C(=O)N[C@@H](CCC(N)=O)C(=O)N[C@@H](CCCCN)C(=O)NC(C)(C)C(=O)N[C@@H](CCC(N)=O)C(=O)N[C@@H](CCCNC(=N)N)C(=O)N[C@@H](CCC(=O)O)C(=O)N[C@@H](CCC(N)=O)C(=O)N[C@@H](C)C(=O)N[C@@H](CCC(=O)O)C(=O)N[C@H](C(=O)N[C@@H](CC(N)=O)C(=O)NC1(C(=O)N[C@@H](CCC(N)=O)C(=O)N[C@H](C(=O)N[C@@H](CC(C)C)C(=O)N[C@@H](C)C(=O)N[C@@H](CCC(N)=O)C(=O)N[C@H](C(N)=O)C(C)C)[C@@H](C)CC)CCNCC1)[C@@H](C)O)[C@@H](C)CC)[C@@H](C)CC)C(C)C)C(C)C` [compound 188] (Ac-IVLSLD[dV]PIKLK([γGlu-C18 diacid])KILLEQEKQK[Aib]QREQAETN[Api]QILAQV-NH2), the EC50 (human CRF2a receptor) was 280 pM, the “Emax (% I)” value (CFR1R receptor) was 32 % I and the EC50 (CFR1R receptor) was > 250000 pM. The remaining at 2 h [1] was 77%, the “Buffer stability pH 4.5 % purity loss” value [2] was 0.0/0.0 ^ % and the “Buffer stability pH 7.4 % purity loss” value [2] was 0.0/0.0 ^ %. For the same compound, the AUC(0-t) [3] was 2270 ng·h/mL, the Cmax [3] was 138 ng/mL and the Tmax [3] was 6 h. For the same compound, the half-life [3] was 10.6 h.
For `CC[C@H](C)[C@H](NC(C)=O)C(=O)N[C@H](C(=O)N[C@@H](CC(C)C)C(=O)N[C@@H](CO)C(=O)N[C@@H](CC(C)C)C(=O)N[C@@H](CC(=O)O)C(=O)N[C@@H](C(=O)N1CCC[C@H]1C(=O)N[C@H](C(=O)N[C@@H](CCCCN)C(=O)N[C@@H](CC(C)C)C(=O)N[C@@H](CCCCNC(=O)COCCOCCNC(=O)CC[C@H](NC(=O)CCCCCCCCCCCCCCCCCCC(=O)O)C(=O)O)C(=O)N[C@@H](CCCCN)C(=O)N[C@H](C(=O)N[C@@H](CC(C)C)C(=O)N[C@@H](CC(C)C)C(=O)N[C@@H](CCC(=O)O)C(=O)N[C@@H](CCC(N)=O)C(=O)N[C@@H](CCC(=O)O)C(=O)N[C@@H](CCCCN)C(=O)N[C@@H](CCC(N)=O)C(=O)N[C@@H](CCCCN)C(=O)N[C@@H](CCC(=O)O)C(=O)N[C@@H](CCC(N)=O)C(=O)N[C@@H](CCCNC(=N)N)C(=O)N[C@@H](CCC(=O)O)C(=O)N[C@@H](CCC(N)=O)C(=O)N[C@@H](C)C(=O)N[C@@H](CCC(=O)O)C(=O)N[C@H](C(=O)N[C@@H](CC(N)=O)C(=O)NC(C)(C)C(=O)N[C@@H](CCC(N)=O)C(=O)N[C@H](C(=O)N[C@@H](CC(C)C)C(=O)N[C@@H](C)C(=O)N[C@@H](CCC(N)=O)C(=O)N[C@H](C(N)=O)C(C)C)[C@@H](C)CC)[C@@H](C)O)[C@@H](C)CC)[C@@H](C)CC)C(C)C)C(C)C` [compound 231] (Ac-IVLSLD[dV]PIKLK([AEEA-γGlu-C20 diacid])KILLEQEKQKEQREQAETN[Aib]QILAQV-NH2), the EC50 (human CRF2a receptor) was 280 pM, the “Emax (% I)” value (CFR1R receptor) was 10 % I and the EC50 (CFR1R receptor) was > 250000 pM. For the same compound, the remaining at 2 h [1] was 65%, the “Buffer stability pH 7.4 % purity loss” value [2] was 0.0/Not Tested % and the “Systolic blood pressure (Mean) % change from baseline, 8 h” value (Sprague Dawley rats; 8 h, n=2) was −3%. For the same compound, the “Systolic blood pressure (Mean) % change from baseline, 12 h” value (Sprague Dawley rats; 12 h, n=2) was −3%, the “Systolic blood pressure (Mean) % change from baseline, 24 h” value (Sprague Dawley rats; 24 h, n=2) was −12% and the Duration of action (Sprague Dawley rats; last time point with an effect on BP still observed) was >24 h.
